In brackets after ≈: the same amount, converted by molar mass. Read-outs that look alike come from different tables or passages of the source.
Experiments:
[1] = system: Pseudomonas aeruginosa R9 KY8516; test: MIC, agar dilution method, pH 7.2; assay type: cell-based; details: R9KY8516, pH 7.2, P. aeruginosa R9 KY8516, 3**: kanamycin, producing acetyltransferase, read-out: Minimum inhibition concentration (MIC)
Procedure: (§1) Measurement was carried out according to the agar dilution method, using a medium of pH 8.0, or the Japanese Antibiotic Medicament Standard, using a medium of pH 7.2 Units are in mcg/ml.
(§2) 3: kanamycin, producing acetyltransferase.

[2] = system: Serratia marcescens 1065; test: MIC, agar dilution method, pH 7.2; assay type: cell-based; details: Serratia marcescens, 1065, pH 7.2, read-out: Minimum inhibition concentration (MIC)
Procedure: as §1, §2

[3] = system: Escherichia coli R17 Z343; test: MIC, agar dilution method, pH 7.2; assay type: cell-based; details: R17Z343, pH 7.2, E. coli R17 Z343, 3**: kanamycin, producing acetyltransferase, read-out: Minimum inhibition concentration (MIC)
Procedure: as §1, §2

[4] = system: Staphylococcus a ureus 226; test: MIC, agar dilution method, pH 7.2; assay type: cell-based, Staphylococcus aureus; details: pH 7.2; Staphylococcus aureus 226; read-out: Minimum inhibition concentration (MIC)
Procedure: as §1

[5] = system: Proteus vulgaris KY4277 ATCC6897; test: MIC, agar dilution method, pH 8.0; assay type: cell-based
Procedure: as §1

[6] = system: Shigella sonnei KY4281 ATCC9290; test: MIC, agar dilution method, pH 8.0; assay type: cell-based
Procedure: as §1

[7] = system: Eschericihia coli 3100; test: MIC, agar dilution method, pH 7.2; assay type: cell-based, Escherichia coli; details: Escherichia coli, 3100, pH 7.2, read-out: Minimum inhibition concentration (MIC)
Procedure: as §1

[8] = system: Escherichia coli 57R/W677; test: MIC, agar dilution method, pH 7.2; assay type: cell-based; details: 57R/W677, pH 7.2, read-out: Minimum inhibition concentration (MIC)
Procedure: as §1
(§3) **1: gentamicin, producing adenylsynthetase.

[9] = system: Escherichia coli 76-2; test: MIC, agar dilution method, pH 7.2; assay type: cell-based; details: Escherichia coli, 762; pH 7.2; E. coli 76-2; 1**: gentamicin, producing adenylsynthetase; read-out: Minimum inhibition concentration (MIC)
Procedure: as §1, §3

[10] = system: Escherichia coli R12 Z-338; test: MIC, agar dilution method, pH 7.2; assay type: cell-based; details: R12Z338, pH 7.2, read-out: Minimum inhibition concentration (MIC)
Procedure: as §1, §3

[11] = system: Klebsiella pneumoniae 3020 Y-60; test: MIC, agar dilution method, pH 7.2; assay type: cell-based; details: 3020Y60; pH 7.2; Klebsiella pneumoniae 3020 Y-60; 1**: gentamicin, producing adenylsynthetase; read-out: Minimum inhibition concentration (MIC)
Procedure: as §1, §3

[12] = system: Escherichia coli R20 KY8349; test: MIC, agar dilution method, pH 7.2; assay type: cell-based; details: R20KY8349, pH 7.2, E. coli R20 KY8349, 5**: neomycin, producing phosphotransferase type I, read-out: Minimum inhibition concentration (MIC)
Procedure: as §1
5: neomycin, producing phosphotransferase type I.

[13] = system: Providencia sp 164; test: MIC, agar dilution method, pH 7.2; assay type: cell-based; details: pH 7.2; Providencia sp 164; 7**: gentamicin, producing acetyltransferase type II; read-out: Minimum inhibition concentration (MIC)
Procedure: as §1
7: gentamicin, producing acetyltransferase type II.

[14] = system: Klebsiella pneumoniae KY4275 ATCC10031; test: MIC, agar dilution method, pH 8.0; assay type: cell-based; details: ATCC10031; pH 8.0; Klebsiella pneumoniae KY4275; read-out: Minimum inhibition concentration (MIC), KP
Procedure: as §1
K.P.: Klebsiella pneumoniae KY4275 ATCC10031.

[15] = system: Staphylococcus aureus Smith (A); test: MIC, agar dilution method, pH 7.2; assay type: cell-based; details: pH 7.2; Staphylococcus aureus Smith (A); read-out: Minimum inhibition concentration (MIC)
Procedure: as §1

[16] = system: Escherichia coli NIHTC-2; test: MIC, agar dilution method, pH 7.2; assay type: cell-based; details: NIHTC2; pH 7.2; Escherichia coli NIHTC-2; read-out: Minimum inhibition concentration (MIC)
Procedure: as §1

[17] = system: Eschericihia coli GN2411-5; test: MIC, agar dilution method, pH 7.2; assay type: cell-based; details: Escherichia coli; pH 7.2; E. coli GN2411-5; read-out: Minimum inhibition concentration (MIC)
Procedure: as §1

[18] = system: Proteus vulgaris JJ; test: MIC, agar dilution method, pH 7.2; assay type: cell-based; details: Proteus vulgaris, pH 7.2, read-out: Minimum inhibition concentration (MIC)
Procedure: as §1

[19] = system: Pseudomonas aeruginosa UCLA 4184; test: MIC, agar dilution method, pH 7.2; assay type: cell-based; details: UCLA4184; pH 7.2; Pseudomonas aeruginosa UCLA 4184; read-out: Minimum inhibition concentration (MIC)
Procedure: as §1

[20] = system: Staphylococcus aureus 209-P; test: MIC, agar dilution method, pH 7.2; assay type: cell-based; details: pH 7.2; Staphylococcus aureus 209-P; read-out: Minimum inhibition concentration (MIC)
Procedure: as §1

[21] = system: Klebsiella pneumoniae KY4274; test: MIC, agar dilution method, pH 7.2; assay type: cell-based; details: Klebsiella pneumoniae, KY4274, pH 7.2, read-out: Minimum inhibition concentration (MIC)
Procedure: as §1

[22] = system: Pseudomonas aeruginosa BMH# 1; test: MIC, agar dilution method, pH 7.2; assay type: cell-based; details: pH 7.2; Pseudomonas aeruginosa BMH# 1; read-out: Minimum inhibition concentration (MIC)
Procedure: as §1

[23] = system: Shigella sonnei ATCC9290; test: MIC, agar dilution method, pH 7.2; assay type: cell-based; details: read-out: Minimum inhibition concentration (MIC)
Procedure: as §1

[24] = system: Salmonella enteritidis G-14; test: MIC, agar dilution method, pH 7.2; assay type: cell-based; details: Salmonella enterica; pH 7.2; Salmonella enteritidis G-14; read-out: Minimum inhibition concentration (MIC)
Procedure: as §1

[25] = system: Escherichia coli R19 KY8348; test: MIC, agar dilution method, pH 7.2; assay type: cell-based; details: R19KY8348, pH 7.2, E. coli R19 KY8348, 4**: gentamicin, producing acetyltransferase type I, read-out: Minimum inhibition concentration (MIC)
Procedure: as §1
(§4) 4: gentamicin, producing acetyltransferase type I.

[26] = system: Pseudomonas aeruginosa R4 KY8511; test: MIC, agar dilution method, pH 7.2; assay type: cell-based; details: R4KY8511, pH 7.2, P. aeruginosa R4 KY8511, 4**: gentamicin, producing acetyltransferase type I, read-out: Minimum inhibition concentration (MIC)
Procedure: as §1, §4

[27] = system: Salmonella typhosa KY4278 ATCC9992; test: MIC, agar dilution method, pH 8.0; assay type: cell-based; details: Salmonella enterica, pH 8, read-out: Minimum inhibition concentration (MIC), ST
Procedure: as §1
S.T.: Salmonella typhosa KY4278 ATCC9992

[28] = system: Bacillus subtilis KY4273; test: MIC, agar dilution method, pH 8.0; assay type: cell-based
Procedure: as §1
B.S.: Bacillus subtilis KY4273

[29] = system: Staphylococcus aureus KY4279 ATCC6538P; test: MIC, agar dilution method, pH 8.0; assay type: cell-based; details: pH 8.0, Staphylococcus aureus KY4279, read-out: Minimum inhibition concentration (MIC), SA
Procedure: as §1
S.A.: Staphylococcus aureus KY4279 ATCC6538P

[30] = system: Pseudomonas aeruginosa R5 KY8512; test: MIC, agar dilution method, pH 7.2; assay type: cell-based; details: R5KY8512, pH 7.2, P. aeruginosa R5 KY8512, 6**: neomycin, producing phosphotransferase type I and type II, read-out: Minimum inhibition concentration (MIC)
Procedure: as §1
6: neomycin, producing phosphotransferase type I and type II.

[31] = system: Eschericia coli KY4271 ATCC26; test: MIC, agar dilution method, pH 8.0; assay type: cell-based; details: Escherichia coli
Procedure: as §1
E.C.: Eschericia coli KY4271 ATCC26

[32] = system: Escherichia coli R18 KY8321; test: MIC, agar dilution method, pH 7.2; assay type: cell-based; details: R18KY8321, E. coli R18 KY8321, 2**: gentamicin, producing adenylsynthetase and neomycin phosphotransferase type II, read-out: Minimum inhibition concentration (MIC)
Procedure: as §1
2: gentamicin, producing adenylsynthetase and neomycin phosphotransferase

Q: Which MIC [1] does the source give for `CO[C@H]1[C@@H](O)[C@H](N)[C@@H](O[C@H]2O[C@H]([C@H](C)N)CC[C@H]2N)[C@H](O)[C@@H]1N(C)CCN` [Compound 15, 4-N-(2-aminoethyl)fortimicin B] here?
A: 25 µg/mL (≈ 63.9 µM)

Q: And the MIC [2]?
A: 6.25 µg/mL (≈ 16 µM)

Q: What about the MIC [3] of the same compound?
A: 0.78 µg/mL (≈ 1.99 µM)

Q: What about the MIC [4] of the same compound?
A: 0.4 µg/mL (≈ 1.02 µM)

Q: And the MIC ([5]; ATCC6897, pH 8.0, Proteus vulgaris KY4277, read-out: Minimum inhibition concentration (MIC), PV)?
A: 0.64 µg/mL (≈ 1.63 µM)

Q: What about the MIC ([6]; Shigella sonnei, ATCC9290, pH 8, read-out: Minimum inhibition concentration (MIC), SS) of the same compound?
A: 1.25 µg/mL (≈ 3.19 µM)

Q: And the MIC [7]?
A: 6.25 µg/mL (≈ 16 µM)

Q: And the MIC [8]?
A: 12.5 µg/mL (≈ 31.9 µM)

Q: And the MIC [9]?
A: 3.12 µg/mL (≈ 7.97 µM)

Q: What about the MIC [10] of the same compound?
A: 6.25 µg/mL (≈ 16 µM)

Q: What about the MIC [11] of the same compound?
A: 50 µg/mL (≈ 128 µM)

Q: What about the MIC [12] of the same compound?
A: 3.12 µg/mL (≈ 7.97 µM)

Q: What about the MIC [13] of the same compound?
A: 12.5 µg/mL (≈ 31.9 µM)

Q: What about the MIC [14] of the same compound?
A: 0.63 µg/mL (≈ 1.61 µM)

Q: What about the MIC [15] of the same compound?
A: 0.78 µg/mL (≈ 1.99 µM)

Q: And the MIC [16]?
A: 3.12 µg/mL (≈ 7.97 µM)

Q: What about the MIC [17] of the same compound?
A: 3.12 µg/mL (≈ 7.97 µM)

Q: And the MIC [18]?
A: 6.25 µg/mL (≈ 16 µM)

Q: What about the MIC [19] of the same compound?
A: 12.5 µg/mL (≈ 31.9 µM)

Q: And the MIC [20]?
A: 0.78 µg/mL (≈ 1.99 µM)

Q: And the MIC [21]?
A: 6.25 µg/mL (≈ 16 µM)

Q: And the MIC [22]?
A: 12.5 µg/mL (≈ 31.9 µM)

Q: What about the MIC [23] of the same compound?
A: 6.25 µg/mL (≈ 16 µM)

Q: And the MIC [24]?
A: 25 µg/mL (≈ 63.9 µM)

Q: What about the MIC [25] of the same compound?
A: > 100 µg/mL

Q: And the MIC [26]?
A: > 100 µg/mL

Q: And the MIC [27]?
A: 0.32 µg/mL (≈ 0.817 µM)

Q: What about the MIC ([28]; pH 8.0, Bacillus subtilis KY4273, read-out: Minimum inhibition concentration (MIC), BS) of the same compound?
A: 0.16 µg/mL (≈ 0.409 µM)

Q: And the MIC [29]?
A: 0.16 µg/mL (≈ 0.409 µM)

Q: What about the MIC [30] of the same compound?
A: 12.5 µg/mL (≈ 31.9 µM)

Q: And the MIC ([31]; ATCC26, pH 8.0, E. coli KY4271, read-out: Minimum inhibition concentration (MIC), EC)?
A: 0.32 µg/mL (≈ 0.817 µM)

Q: And the MIC [32]?
A: 3.12 µg/mL (≈ 7.97 µM)

Q: Which MIC ([5]; Proteus vulgaris, ATCC6897, pH 8, read-out: Minimum inhibition concentration (MIC), PV) does the source give for `CCN(C)[C@H]1[C@@H](O)[C@H](O[C@H]2O[C@H]([C@H](C)N)CC[C@H]2N)[C@@H](N)[C@H](O)[C@@H]1OC` [Compound 16, 4-N-ethylfortimicin B] here?
A: 6.25 µg/mL (≈ 16.6 µM)

Q: And the MIC ([6]; ATCC9290, pH 8.0, Shigella sonnei KY4281, read-out: Minimum inhibition concentration (MIC), SS)?
A: 6.25 µg/mL (≈ 16.6 µM)

Q: What about the MIC [14] of the same compound?
A: 50 µg/mL (≈ 133 µM)

Q: What about the MIC [27] of the same compound?
A: 3.13 µg/mL (≈ 8.31 µM)

Q: What about the MIC ([28]; Bacillus subtilis, KY4273, pH 8, read-out: Minimum inhibition concentration (MIC), BS) of the same compound?
A: 3.13 µg/mL (≈ 8.31 µM)

Q: And the MIC [29]?
A: 1.56 µg/mL (≈ 4.14 µM)

Q: And the MIC ([31]; ATCC26, pH 8, read-out: Minimum inhibition concentration (MIC), EC)?
A: 3.13 µg/mL (≈ 8.31 µM)

— patent publication US4220755A, “Fortimicin B derivatives and process for production thereof” (Abbott Laboratories, priority 1976, dated 1980)
